Several values for one entry are separate records, joined by “and”; a condition that tells them apart may be missing. Equal entries are not always repeated. Entries after “also recorded” stand apart in the source; their conditions may differ. Where two headings read alike, the source gives them in different places.
Legend:
[1] = tested on: B. microti; test: Growth inhibition of Babesia microti by in vitro culture; format: cell-based; conditions: for IC50: read-out: IC50 B. microti
Description: Infected mouse blood was collected and centrifuged at 845 × g for 5 min, and the infected mouse RBCs was isolated. The RBCs infected by B. microti were diluted to 5% with uninfected mouse and human RBCs (10:1). […] Drug-free wells were set up as blank control. All treatments were carried out in triplicate. After 72 h of incubation, parasitemia was examined by Giemsa staining under a microscope.

[2] = biological target: T1, rBmPYKI (Babesia microti, UniProt A0A1N6LXR4); test: biochemical; format: biochemical
[3] = Cytotoxicity assay, Cell Counting Kit-8, Vero cells; conditions: African green monkey
[4] = biological target: rBmLDH (Babesia microti, UniProt I7J7V6); test: biochemical; format: biochemical
Sequence of rBmLDH (I7J7V6 1-332): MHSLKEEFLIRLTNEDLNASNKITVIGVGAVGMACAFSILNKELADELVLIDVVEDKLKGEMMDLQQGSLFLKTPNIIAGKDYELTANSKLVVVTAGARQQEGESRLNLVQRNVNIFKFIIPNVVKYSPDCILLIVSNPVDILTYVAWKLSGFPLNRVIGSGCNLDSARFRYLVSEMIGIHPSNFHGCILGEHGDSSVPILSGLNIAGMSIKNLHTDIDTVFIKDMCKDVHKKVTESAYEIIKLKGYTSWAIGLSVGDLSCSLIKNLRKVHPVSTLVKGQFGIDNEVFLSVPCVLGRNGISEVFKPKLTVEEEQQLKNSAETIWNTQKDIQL

[5] = Cytotoxicity assay, Cell Counting Kit-8, HFF cells; conditions: human
[6] = tested on: HFF cells
[7] = tested on: Vero cells
[8] = tested on: PYK from T. gondii; conditions: cited from earlier work
[9] = tested on: PYK from P. falciparum; conditions: cited from earlier work
[10] = biological target: T1, rBmPYKI; test: Enzyme kinetics of rBmPYKI on substrates PEP and ADP; format: biochemical; conditions: substrate of rBmPYKI
Description: To determine the enzymatic activity of purified rBmPYKI, the GST tag was removed from the recombinant protein; and the indirect coupled lactate dehydrogenase (LDH) assay was applied. Recombinant B. microti LDH (rBmLDH) protein, the only one isoform in B. microti, was expressed and purified according to previously published protocol ([Yu et al., 2019]). The standard enzyme kinetic assay was conducted by monitoring the decrease in NADH at a wavelength of 340 nm using a microplate reader (BioTek, Winooski, VT, United States). One unit of the PYK activity here was defined as 1 μmol of NADH oxidized per minute at 37°C. The samples were continuously measured at 2, 7, 12, 17, 22, and 27 min. To determine the effects of pH and the concentration of Mg^2+ and K^+ on rBmPYKI, the assay was performed in the pH range of 5.5–8.5, and the Mg^2+ and K^+ concentrations ranged from 0 to 200 mM (0, 25, 50, 75, 100, 125, 150, 175, and 200 mM). The standard assay mixture (200 μl) contained 50 mM of Tris-HCl (pH 7.0), 50 mM of MgCl2, 20 mM of KCl, 0.5 mM of NADH (MilliporeSigma), 3 mM of PEP (MilliporeSigma), 1 mM of ADP (MilliporeSigma), 100 ng of rBmLDH (20 U), and 100 ng of rBmPYKI. The initial velocity for the rate of […] of NADH in the first 5 min was calculated, and the relative percentage activity was determined. The kinetic parameters for PEP (at 0.5, 1, 2, 3, 4, and 5 mM) under saturating ADP conditions (3 mM) were determined. The Michaelis–Menten constant (Km) for ADP under 7 mM of PEP (saturation) was determined at 0.05, 0.1, 0.2, 0.4, 0.6, 0.8, 1.0, 1.5, and 2.0 mM.

[11] = tested on: corresponding enzymes from mammals; conditions: cited from earlier work
[12] = tested on: B. microti; test: Rescue assay of tannic acid (pyruvate or ATP added); format: cell-based, Babesia microti; conditions: for effect of addition of ATP on the inhibitory effect: 2 mM ATP; for effect of addition of ATP on the inhibitory effect / effect of addition of pyruvate on the inhibitory effect / inhibition of B. microti as compared with DMSO: tannic acid 1 μM, DA about 10 μM; for effect of addition of pyruvate on the inhibitory effect: 2 mM pyruvic acid
Description: MilliporeSigma) was used as the positive control, and DMSO was used as the negative control because tannic acid was diluted in DMSO. The group only containing medium without any treatment was used as the blank control. Each test was performed in triplicate.

[13] = in vitro; conditions: human
[14] = in vitro; conditions: African green monkey
[15] = tested on: trypanosomes; design: method as in Worku et al., 2015; conditions: net ATP depletion by inhibiting PYK; ref Worku et al., 2015; cited from earlier work
[16] = substrate: Nc1ncnc2c1ncn2[C@@H]1O[C@H](COP(=O)(O)OP(=O)(O)O)[C@@H](O)[C@H]1O; test: Indirect coupled LDH assay following NADH decrease at 340 nm, pH 7.0, 37 °C, 50 mM MgCl2, 20 mM KCl, ADP varied 0.05-2.0 mM at saturating 7 mM PEP, no FBP.; format: biochemical
Description: (§1) To determine the enzymatic activity of purified rBmPYKI, the GST tag was removed from the recombinant protein; and the indirect coupled lactate dehydrogenase (LDH) assay was applied. Recombinant B. microti LDH (rBmLDH) protein, the only one isoform in B. microti, was expressed and purified according to previously published protocol ([Yu et al., 2019]). The standard enzyme kinetic assay was conducted by monitoring the decrease in NADH at a wavelength of 340 nm using a microplate reader (BioTek, Winooski, VT, United States). One unit of the PYK activity here was defined as 1 μmol of NADH oxidized per minute at 37°C. The samples were continuously measured at 2, 7, 12, 17, 22, and 27 min. […] The initial velocity for the rate of […] of NADH in the first 5 min was calculated, and the relative percentage activity was determined. The kinetic parameters for PEP (at 0.5, 1, 2, 3, 4, and 5 mM) under saturating ADP conditions (3 mM) were determined. […]
Statistical analysis was conducted with GraphPad Prism 7.0 (GraphPad Software, La Jolla, CA, United States). Statistical significance was evaluated by one-way ANOVA; and all data were presented as the mean ± standard deviation (SD) from at least three independent experiments performed in duplicate. […]

[17] = substrate: C=C(OP(=O)(O)O)C(=O)O; test: Enzyme kinetics of rBmPYKI on substrates PEP and ADP; format: biochemical, Babesia microti; conditions: other: substrate of rBmPYKI; other substrate saturating; pH 7.0; 37.0 °C
Description: as §1, with “min. To determine the effects of pH and the concentration of Mg^2+ and K^+ on rBmPYKI, the assay was performed in the pH range of 5.5–8.5, and the Mg^2+ and K^+ concentrations ranged from 0 to 200 mM (0, 25, 50, 75, 100, 125, 150, 175, and 200 mM).” for “min.”

[18] = in vitro culture, 72 h, parasitemia by Giemsa staining

CC(C)=CC[C@@H](O)C1=CC(=O)c2c(O)ccc(O)c2C1=O [Shikonin]
hemolysis of RBCs ([1]; 100 μM, infected RBC culture): Slight hemolysis
IC50 ([1]; Babesia microti, 72 h): 1.73 ± 0.69 µM
inhibition at 20 µM ([1]; Babesia microti, 72 h, read-out: inhibition rate of B. microti growth): 80%
IC50 [2]: 187 µM
effect on the activity of rBmPYKI [2]: significantly inhibit
CC50 [3]: 2.37 ± 0.26 µM
effect on rBmLDH / LDH reaction activity [4]: did not affect
IC50 ([4]; read-out: IC50 rBmLDH): > 1950 µM
CC50 [5]: 0.63 ± 0.4 µM

CC(C)=CCC1=C(O)C(=O)c2ccccc2C1=O [Lapachol]
effect on the activity of rBmPYKI [2]: no effect
IC50 [4]: 721 µM
effect on rBmLDH / LDH reaction activity [4]: no effect

CC1=C(CSC(=S)N2CCCCC2)C(=O)c2ccccc2C1=O [PKM2 inhibitor]
inhibition rate of B. microti growth ([1]; 50 μM, 72 h): 80%
IC50 [1, 18]: 1.15 ± 0.11 µM
effect on the activity of rBmPYKI [2]: significantly inhibit
IC50 ([2]; read-out: IC50 rBmPYKI): 23 µM
effect on rBmLDH / LDH reaction activity [4]: did not affect
IC50 ([4]; read-out: IC50 rBmLDH): > 1950 µM
CC50 [6]: 18.6 ± 2.46 µM
CC50 [7]: 39.2 ± 5.05 µM

C=C(OP(=O)(O)O)C(=O)O [PEP, phosphoenolpyruvate]
Km [8]: 750 µM
Km [9]: 190 µM

CCc1ccc(CCOc2ccc(CC3SC(=O)NC3=O)cc2)nc1 (centres unmarked) [Pioglitazone]
effect on the growth of B. microti ([1]; in vitro culture, 72 h): no significant effect
IC50 [2]: 44 µM
effect on the activity of rBmPYKI [2]: significantly inhibit
effect on rBmLDH / LDH reaction activity [4]: did not affect
IC50 ([4]; read-out: IC50 rBmLDH): > 1950 µM

Nc1ncnc2c1ncn2[C@@H]1O[C@H](COP(=O)(O)OP(=O)(O)O)[C@@H](O)[C@H]1O [ADP]
Km [8]: 180 µM
Km [9]: 126 µM
Kcat [10]: 21.8 S^–1
KcatKM [10]: 5.62 × 10^4 S^–1⋅M^–1
Vmax [10]: 242 ± 16 U/mg
Km ([10]; other substrate saturating): 388 ± 87 µM
Km [11]: 350 µM

O=c1cc(-c2ccccc2)oc2ccccc12 [Flavone]
effect on the activity of rBmPYKI [2]: no effect
IC50 ([2]; read-out: IC50 rBmPYKI): > 1950 µM
effect on rBmLDH / LDH reaction activity [4]: no effect
IC50 ([4]; read-out: IC50 rBmLDH): > 1950 µM

CN(CCOc1ccc(CC2SC(=O)NC2=O)cc1)c1ccccn1 (centres unmarked) [Rosiglitazone]
effect on the activity of rBmPYKI [2]: significantly inhibit; also recorded: significantly reduce
IC50 ([2]; read-out: IC50 rBmPYKI): 6.89 µM

Cc1ccc(C(=O)Nc2ccc(S(=O)(=O)O)c3cc(S(=O)(=O)O)cc(S(=O)(=O)O)c23)cc1NC(=O)c1cccc(NC(=O)Nc2cccc(C(=O)Nc3cc(C(=O)Nc4ccc(S(=O)(=O)O)c5cc(S(=O)(=O)O)cc(S(=O)(=O)O)c45)ccc3C)c2)c1 [Suramin]
IC50 ([2]; read-out: IC50 rBmPYKI): 125 µM
effect on rBmLDH / LDH reaction activity [4]: obvious inhibitory effect
IC50 ([4]; read-out: IC50 rBmLDH): 44.2 µM

Tannic acid
inhibition of B. microti growth ([12]; 1 μM, concentration used in rescue assay): 70%
effect of addition of ATP on the inhibitory effect [12]: did not affect
effect of addition of pyruvate on the inhibitory effect [12]: rescue
microscopy observation of inhibited parasites ([12]; Giemsa staining): mostly located outside RBCs
inhibition of B. microti as compared with DMSO [12]: significantly inhibit
inhibition rate of B. microti growth ([1]; 20 μM, 72 h): 80%
IC50 [1, 18]: 0.77 µM
effect on the activity of rBmPYKI [2]: significantly inhibit; also recorded: significantly reduce
inhibition of the activity of rBmPYKI ([2]; 3 µM): more than 90%
IC50 ([2]; read-out: IC50 rBmPYKI): 0.5 µM and 0.49 µM
IC50 ([4]; read-out: IC50 rBmLDH): 23.6 µM
CC50 [6]: 36.5 ± 4.75 µM
CC50 [7]: 53 ± 2.8 µM

COc1c(O)cc(O)c2c(=O)cc(-c3ccccc3)oc12 [Wogonin]
IC50 [2]: 185 µM
IC50 [4]: 143 µM
effect on rBmLDH / LDH reaction activity [4]: obvious inhibitory effect

O=c1cc(-c2ccccc2)oc2ccc(O)cc12 [6-Hydroxyflavone]
IC50 ([2]; read-out: IC50 rBmPYKI): 390 µM
effect on rBmLDH / LDH reaction activity [4]: obvious inhibitory effect
IC50 ([4]; read-out: IC50 rBmLDH): 828 µM

O=c1cc(-c2ccc(O)cc2)oc2cc(O)cc(O)c12 [Apigenin]
IC50 ([1]; Babesia microti, in vitro culture, 72 h, parasitemia by Giemsa staining): 2.1 ± 1.16 µM
IC50 [2]: 70 µM
effect on the activity of rBmPYKI [2]: significantly inhibit
CC50 [13]: 33 ± 1.18 µM
effect on rBmLDH / LDH reaction activity [4]: did not affect
IC50 ([4]; read-out: IC50 rBmLDH): > 1950 µM
CC50 [14]: 58.6 ± 2.97 µM

OC[C@H]1O[C@@H](Oc2cc(O)cc(/C=C/c3ccc(O)cc3)c2)[C@H](O)[C@@H](O)[C@@H]1O [Polydatin]
IC50 [2]: 92.9 µM
IC50 [4]: 142 µM
effect on rBmLDH / LDH reaction activity [4]: obvious inhibitory effect

CC(=O)NCC(=O)O.CC(=O)NCC(=O)O.N=C(N)c1ccc(N=NNc2ccc(C(=N)N)cc2)cc1 [DA, diminazene aceturate]
effect of addition of ATP on the inhibitory effect [12]: did not affect
effect of addition of pyruvate on the inhibitory effect [12]: no effect
inhibition of B. microti as compared with DMSO [12]: significantly inhibit

CCOC(=O)C(C)=O [Ethyl pyruvate]
time of exposure to kill trypanosomes [15]: ≤ 3 h

B1: rBmPYKI (Babesia microti strain RI) (protein)
chain: MNRIIKAVPDDEISKKLTKIVCTIGPASANVDKIVAMIKSGMNVCRFNFSHGTHETHYETMKLVKEAMKQVPGKHIALMIDTKGPEIRTGKLAQGDYIQLTAGQTVKITSDQSVLCTNEIISITYEHLTSSVKPGNIILMADGTISFKVISVEKDYVVGEVMNSARLSNRKNVNLPGVKVNIPVIGEKDKKDILEFGVAHNMDYIAVSFVQSANDILSVKKLIGHNSNLKIISKIENVEGLINFDEILEVSDGIMIARGDLGMEIPSEKVFIAQKMMIYKCNIAGKPVITATQMLESMIVNPRPTRAEVTDVANAVLDGSDCVMLSGETANGAFSVECVRLMSHICLEAESCTDHMSVYLNLLKAIPTPVTTQEAIVRCSVGAIYSVNASCIIALTETGKTASLLAKYKPNQLIIAICNNENVAAGLALNRGVVPIMVDSFIDSDANINHAIEFAKKNNIVVEGSTVLAVHGMVSCAPGNTDMLKILNV
notes: recombinant, pGEX-6p-1, E. coli BL21, GST tag removed by 3C protease, 54 kDa
Km [16]: 388 ± 87 µM
Vmax [16]: 242 µmol/min/mg
Km [17]: 655 ± 117 µM
Vmax [17]: 250 µmol/min/mg
